Measurements taken from patent publication US8153648B2, “Solid and crystalline dutasteride and processes for preparation thereof” (Gador S.A., priority 2008, dated 2012).

Tests used:
[1] = intrinsic dissolving speed (VDI) study; format: physicochemical; conditions: for change of crystalline or polymorphous structure during the dissolving assay: SDS 2% in hydrochloric acid 0.1N 225 ml, detected in the study chart
Experimental: These study has been carried out using Lauril Sodium Sulphate SDS 2% in hydrochloric acid 0.1N 225 ml. as dissolvent. At the established experimental conditions, changes were seen depending on the crystalline or polymorphous structure present.

[2] = stability on exposure to different humidity conditions; format: physicochemical

Compound: C[C@]12C=CC(=O)NC1CCC1C2CC[C@]2(C)C(C(=O)Nc3cc(C(F)(F)F)ccc3C(F)(F)F)CCC12 (stereo partly drawn) [Form I, 17β-N-[2,5-bis(trifluoromethyl)phenyl]carbamoyl-4-aza-5-α-androst-1-en-3-one]
- change of crystalline or polymorphous structure during the dissolving assay [1]: transformation into Form III

Compound: C[C@]12C=CC(=O)NC1CCC1C2CC[C@]2(C)C(C(=O)Nc3cc(C(F)(F)F)ccc3C(F)(F)F)CCC12 (stereo partly drawn) [amorphous Form, 17β-N-[2,5-bis(trifluoromethyl)phenyl]carbamoyl-4-aza-5-α-androst-1-en-3-one]
- change of crystalline or polymorphous structure during the dissolving assay [1]: did not show any changes

Compound: C[C@]12C=CC(=O)NC1CCC1C2CC[C@]2(C)C(C(=O)Nc3cc(C(F)(F)F)ccc3C(F)(F)F)CCC12 (stereo partly drawn) [Crystalline Form II of dutasteride, 17β-N-[2,5-bis(trifluoromethyl)phenyl]carbamoyl-4-aza-5-α-androst-1-en-3-one]
- change of crystalline or polymorphous structure during the dissolving assay [1]: did not show any changes
- changes in the solid Form with XR study ([2]; 66% and 75% HR, 60-day period): No changes were observed
- stability when exposed to humidity ([2]; 66% and 75% HR, 60-day period): stable
- water content (KF), final sample ([2]; after 60 days at 66% and 75% HR): 2.1
- water content (KF), initial sample ([2]; before humidity exposure): 1.9

Compound: C[C@]12C=CC(=O)NC1CCC1C2CC[C@]2(C)C(C(=O)Nc3cc(C(F)(F)F)ccc3C(F)(F)F)CCC12 (stereo partly drawn) [Crystalline Form III of dutasteride, 17β-N-[2,5-bis(trifluoromethyl)phenyl]carbamoyl-4-aza-5-α-androst-1-en-3-one]
- intrinsic dissolving speed value (VDI) ([1]; Lauril Sodium Sulphate SDS 2% in hydrochloric acid 0.1N 225 ml as dissolvent): of the same magnitude of the crystalline forms described in the previous art
